Source: US20210267203A1, “PESTICIDALLY ACTIVE AZOLE-AMIDE COMPOUNDS” (SYNGENTA PARTICIPATIONS AG, priority 2018, published 2021)

Assays:
Type in all cases: in vivo
[1] = tested on: Plutella xylostella (Diamondback Moth); assay: Example B14: activity against Plutella xylostella (diamondback moth), 96-well artificial diet; settings: 216 h, application rate 500 ppm, 9 days after infestation
Procedure, shortened: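 Diet in 96-well plates was treated with aqueous dilutions of 10,000 ppm DMSO stocks, dried, and infested with 30 eggs per well via a netted lid; hatching L1 larvae fed on the diet. Mortality scored 9 days after infestation.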

[2] = tested on: Euschistus heros (Neotropical Brown Stink Bug); assay: Example B2: Euschistus heros (neotropical brown stink bug), soybean leaves sprayed, N2 nymphs; settings: 120 h, application rate 200 ppm, 5 days after infestation, read-out: effect in at least one of the two categories (mortality or growth inhibition)
Procedure, shortened: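 Soybean leaves on agar sprayed with aqueous test solutions made from 10,000 ppm DMSO stocks, dried, then infested with N2 nymphs. Mortality and growth inhibition scored versus untreated samples 5 days after infestation; activity threshold at 200 ppm.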

[3] = tested on: Myzus persicae (Green Peach Aphid); assay: Example B13: activity against Myzus persicae (green peach aphid), 96-well sucrose solution; settings: 120 h, application rate 50 ppm, 5 days after infestation
Procedure, shortened: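 Compounds, from 10,000 ppm DMSO stocks, mixed into sucrose solution in wells under stretched Parafilm, with aphids placed on the membrane in an inverted feeding setup. Mortality scored 5 days after infestation.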

[4] = tested on: Tetranychus urticae (Two-Spotted Spider Mite); assay: Example B11: Tetranychus urticae (two-spotted spider mite), feeding/contact activity; settings: 192 h, application rate 200 ppm, mixed population (mobile stages), 8 days after infestation
Method: Example B11: Tetranychus urticae (Two-Spotted Spider Mite):Feeding/Contact Activity
Bean leaf discs on agar in 24-well microtiter plates were sprayed with aqueous test solutions prepared from 10,000 ppm DMSO stock solutions. After drying the leaf discs were infested with a mite population of mixed ages. The samples were assessed for mortality on mixed population (mobile stages) 8 days after infestation.

[5] = tested on: Plutella xylostella (Diamond Back Moth); assay: Example B5: Plutella xylostella (diamond back moth), artificial diet, 24-well, eggs; settings: 192 h, application rate 200 ppm, 8 days after infestation, read-out: effect in at least one of the two categories (mortality or growth inhibition)
Procedure, shortened: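 Artificial diet in 24-well plates treated with aqueous dilutions of 10,000 ppm DMSO stocks, dried, then infested with Plutella eggs. Mortality and growth inhibition scored against untreated samples 8 days after infestation; activity rated at 200 ppm application rate.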

[6] = tested on: Myzus persicae (Green Peach Aphid); assay: Example B7: Myzus persicae (green peach aphid), systemic activity; settings: 144 h, test rate 24 ppm, pea seedling roots in test solution, 6 days
Method: Example B7: Myzus persicae (Green Peach Aphid), Systemic Activity
Roots of pea seedlings infested with an aphid population of mixed ages were placed directly into aqueous test solutions prepared from 10,000 DMSO stock solutions. The samples were assessed for mortality 6 days after placing seedlings into test solutions.

[7] = tested on: Myzus persicae (Green Peach Aphid); assay: Example B6: Myzus persicae (green peach aphid), feeding/contact activity; settings: 144 h, application rate 200 ppm, 6 days after infestation
Method: Example B6: Myzus persicae (Green Peach Aphid):Feeding/Contact Activity
(§1) Sunflower leaf discs were placed onto agar in a 24-well microtiter plate and sprayed with aqueous test solutions prepared from 10,000 ppm DMSO stock solutions. After drying, the leaf discs were infested with an aphid population of mixed ages. The samples were assessed for mortality 6 days after infestation.

[8] = tested on: Myzus persicae (Green Peach Aphid); assay: Example B8: Myzus persicae (green peach aphid), intrinsic activity; settings: 120 h, test rate 12 ppm, sucrose solution, 24-well, 5 days after infestation
Procedure, shortened: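 Compounds diluted from 10,000 ppm DMSO stock were mixed with sucrose solution under stretched Parafilm in a sachet feeding setup, with aphid-infested pea seedlings placed on the membrane. Mortality was scored 5 days after infestation.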

[9] = tested on: Thrips tabaci (Onion Thrips); assay: Example B12: Thrips tabaci (onion thrips), feeding/contact activity; settings: 144 h, application rate 200 ppm, mixed ages, 6 days after infestation
Method: Example B12: Thrips tabaci (Onion Thrips) Feeding/Contact Activity
as §1, with “on” for “onto”, “in” for “in a”, “plates” for “plate”, “drying” for “drying,”, “a thrips” for “an aphid”

[10] = tested on: Diabrotica Balteata (Corn Root Worm); assay: Example B1: Diabrotica balteata (corn root worm), maize sprouts sprayed, L2 larvae; settings: 96 h, application rate 200 ppm, 4 days after infestation, read-out: effect in at least one of the two categories (mortality or growth inhibition)
Procedure, shortened: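 Maize sprouts on agar sprayed with aqueous dilutions of 10,000 ppm DMSO stocks, dried, then infested with 6–10 L2 larvae per well. Mortality and growth inhibition scored against untreated samples 4 days after infestation; rates of 200 ppm.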

[11] = tested on: Spodoptera littoralis (Egyptian Cotton Leaf Worm); assay: Example B10: Spodoptera littoralis (Egyptian cotton leaf worm), uptake by lettuce roots from agar, eggs; settings: 144 h, test rate 12.5 ppm, lettuce root uptake, 6 days after infestation, read-out: effect in at least one of the three categories (mortality, anti-feeding, or growth inhibition)
Procedure, shortened: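 Compound mixed into agar from a 10,000 ppm DMSO stock; lettuce grown on it for 7 days for root uptake. Cut leaves infested with Spodoptera eggs; mortality, anti-feedant effect and growth inhibition scored against untreated samples 6 days after infestation.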

[12] = tested on: Spodoptera littoralis (Egyptian Cotton Leaf Worm); assay: Example B9: Spodoptera littoralis (Egyptian cotton leaf worm), cotton leaf discs sprayed, L1 larvae; settings: foliar, 72 h, application rate 200 ppm, 3 days after infestation
Procedure, shortened: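 Leaf discs on agar sprayed with aqueous dilutions from 10,000 ppm DMSO stock, dried, then infested with five L1 larvae. Mortality, anti-feeding and growth inhibition scored against untreated samples 3 days after infestation; control counted when any category exceeds untreated.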

[13] = tested on: Frankliniella occidentalis (Western Flower Thrips); assay: Example B3: Frankliniella occidentalis (western flower thrips), feeding/contact activity; settings: 168 h, application rate 200 ppm, mixed ages, 7 days after infestation
Method: Example B3: Frankliniella occidentalis (Western Flower Thrips):Feeding/Contact Activity
Sunflower leaf discs were placed on agar in 24-well microtiter plates and sprayed with aqueous test solutions prepared from 10,000 DMSO stock solutions. After drying the leaf discs were infested with a Frankliniella population of mixed ages. The samples were assessed for mortality 7 days after infestation.

[14] = tested on: Chilo suppressalis (Striped Rice Stemborer); assay: Example B4: Chilo suppressalis (striped rice stemborer), artificial diet, L2 larvae; settings: 144 h, application rate 200 ppm, 6 days after infestation
Procedure, shortened: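 L2 larvae (6-8 per well) placed on artificial diet treated with aqueous test solutions prepared from 10,000 ppm DMSO stocks, after drying. Mortality, anti-feeding and growth inhibition scored against untreated samples 6 days after infestation; control means at least one category exceeds untreated.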

CC(c1ncnn1-c1ncccn1)N(CC1CC1)C(=O)c1cc(C(C)(C)C#N)cc(Cl)n1 (stereo not drawn) [P27, 6-chloro-4-(1-cyano-1-methyl-ethyl)-N-(cyclopropylmethyl)-N-[1-(2-pyrimidin-2-yl-1,2,4-triazol-3-yl)ethyl]pyridine-2-carboxamide]
≥ 80%: mortality at 500 ppm [1] | percent effect (mortality or growth inhibition) at 200 ppm [2] | mortality at 50 ppm [3] | mortality at 200 ppm [4] | percent effect (mortality or growth inhibition) at 200 ppm [5]

CC(c1ncnn1-c1ncccn1)N(CC1CC1)C(=O)c1cc(C(F)(F)F)cc(S(C)(=O)=O)c1 (stereo not drawn) [P34, N-(cyclopropylmethyl)-3-methylsulfonyl-N-[1-(2-pyrimidin-2-yl-1,2,4-triazol-3-yl)ethyl]-5-(trifluoromethyl)benzamide]
≥ 80%: mortality at 24 ppm [6] | mortality at 200 ppm [7] | mortality at 500 ppm [1] | percent effect (mortality or growth inhibition) at 200 ppm [2] | mortality at 50 ppm [3] | mortality at 12 ppm [8] | mortality at 200 ppm [4] | mortality at 200 ppm [9] | percent effect (mortality or growth inhibition) at 200 ppm [10] | percent effect (mortality or growth inhibition) at 200 ppm [5]

CC(c1ncnn1-c1ncccn1)N(CC1CC1)C(=O)c1cc(C(F)(F)F)cc(C2(C(F)(F)F)CC2)c1 (stereo not drawn) [P45, N-(cyclopropylmethyl)-N-[1-(2-pyrimidin-2-yl-1,2,4-triazol-3-yl)ethyl]-3-(trifluoromethyl)-5-[1-(trifluoromethyl)cyclopropyl]benzamide]
≥ 80%: mortality at 24 ppm [6] | mortality at 500 ppm [1] | percent effect (mortality or growth inhibition) at 200 ppm [2] | mortality at 50 ppm [3] | mortality at 12 ppm [8] | percent effect (mortality, anti-feeding or growth inhibition) at 12.5 ppm [11] | percent control (mortality, anti-feedant effect or growth inhibition) at 200 ppm [12] | mortality at 200 ppm [13] | percent effect (mortality or growth inhibition) at 200 ppm [10] | percent effect (mortality or growth inhibition) at 200 ppm [5]

CC(NC(=O)c1cc(-c2cccnc2Cl)cc(C(F)(F)F)c1)c1ncnn1-c1ncccn1 (stereo not drawn) [P62, 3-(2-chloro-3-pyridyl)-N-[1-(2-pyrimidin-2-yl-1,2,4-triazol-3-yl)ethyl]-5-(trifluoromethyl)benzamide]
≥ 80%: mortality at 200 ppm [4]

CC(NC(=O)c1cc(C(F)(F)F)cc(S(C)(=O)=O)c1)c1ncnn1-c1ncccn1 (stereo not drawn) [P64, 3-methylsulfonyl-N-[1-(2-pyrimidin-2-yl-1,2,4-triazol-3-yl)ethyl]-5-(trifluoromethyl)benzamide]
≥ 80%: percent control (mortality, anti-feedant effect or growth inhibition) at 200 ppm [14] | mortality at 24 ppm [6] | mortality at 200 ppm [7] | percent effect (mortality or growth inhibition) at 200 ppm [2] | mortality at 50 ppm [3] | mortality at 12 ppm [8] | percent control (mortality, anti-feedant effect or growth inhibition) at 200 ppm [12] | mortality at 200 ppm [13] | percent effect (mortality or growth inhibition) at 200 ppm [10] | percent effect (mortality or growth inhibition) at 200 ppm [5]

CC(NC(=O)c1cc(C(F)(F)F)cc(C(C)(C)C#N)c1)c1ncnn1-c1ncc(Br)cn1 (stereo not drawn) [P79, N-[1-[2-(5-bromopyrimidin-2-yl)-1,2,4-triazol-3-yl]ethyl]-3-(1-cyano-1-methyl-ethyl)-5-(trifluoromethyl)benzamide]
≥ 80%: percent control (mortality, anti-feedant effect or growth inhibition) at 200 ppm [14] | percent effect (mortality or growth inhibition) at 200 ppm [2] | percent control (mortality, anti-feedant effect or growth inhibition) at 200 ppm [12] | mortality at 200 ppm [4] | percent effect (mortality or growth inhibition) at 200 ppm [10] | percent effect (mortality or growth inhibition) at 200 ppm [5]

Cc1nc(C(C)NC(=O)c2cc(C(F)(F)F)cc(C3(C#N)CC3)c2)n(-c2ncccn2)n1 (stereo not drawn) [P83, 3-(1-cyanocyclopropyl)-N-[1-(5-methyl-2-pyrimidin-2-yl-1,2,4-triazol-3-yl)ethyl]-5-(trifluoromethyl)benzamide]
≥ 80%: percent control (mortality, anti-feedant effect or growth inhibition) at 200 ppm [14] | mortality at 24 ppm [6] | mortality at 200 ppm [7] | percent effect (mortality or growth inhibition) at 200 ppm [2] | mortality at 50 ppm [3] | mortality at 12 ppm [8] | percent control (mortality, anti-feedant effect or growth inhibition) at 200 ppm [12] | mortality at 200 ppm [13] | mortality at 200 ppm [4] | percent effect (mortality or growth inhibition) at 200 ppm [10] | percent effect (mortality or growth inhibition) at 200 ppm [5]

CC(NC(=O)c1cc(C(F)(F)F)cc(C2(C#N)CC2)c1)c1ncnn1-c1ncccn1 (stereo not drawn) [P85, 3-(1-cyanocyclopropyl)-N-[1-(2-pyrimidin-2-yl-1,2,4-triazol-3-yl)ethyl]-5-(trifluoromethyl)benzamide]
≥ 80%: percent control (mortality, anti-feedant effect or growth inhibition) at 200 ppm [14] | mortality at 200 ppm [7] | percent effect (mortality or growth inhibition) at 200 ppm [2] | mortality at 50 ppm [3] | mortality at 12 ppm [8] | percent effect (mortality, anti-feeding or growth inhibition) at 12.5 ppm [11] | percent control (mortality, anti-feedant effect or growth inhibition) at 200 ppm [12] | mortality at 200 ppm [13] | percent effect (mortality or growth inhibition) at 200 ppm [10] | percent effect (mortality or growth inhibition) at 200 ppm [5]
